# In PMC5760531, “Action Potential Recording and Pro-arrhythmia Risk Analysis in Human Ventricular Trabeculae” (Frontiers in Physiology, 2018):
# What was measured:
# [1] = test system: human ventricular trabeculae; experiment: Action potential recording and pro-arrhythmic score analysis in human ventricular trabeculae (hVT);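 further: sharp microelectrode action potential recordings at 37°C in Tyrode-perfused trabeculae, 4 cumulative concentrations each applied 31 min, values averaged over last 30 APs, vehicle 0.1% DMSO as control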
# [2] = human free (unbound) effective therapeutic plasma concentration used to calculate multiples; cited from earlier work
# [3] = 1Hz, 0.1-FOLD free ETPC (0.003µM)
# [4] = 1Hz, 1-FOLD free ETPC (0.003µM)
# [5] = 1Hz, 10-FOLD free ETPC (0.003µM)
# [6] = 1Hz, 100-FOLD free ETPC (0.003µM)
# [7] = 2Hz, 0.1-FOLD free ETPC (0.003µM)
# [8] = 2Hz, 1-FOLD free ETPC (0.003µM)
# [9] = 2Hz, 10-FOLD free ETPC (0.003µM)
# [10] = 2Hz, 100-FOLD free ETPC (0.003µM)
structure (smiles),measurement,setting,value
"COc1cc(N)c(Cl)cc1C(=O)NC1CCN(CCCOc2ccc(F)cc2)CC1OC (stereo not shown) [CISAPRIDE, Cisapride]",AMAX,[1]; [3],111
same,AMAX percentage change compared to vehicle control,[1]; [3],-2%
same,APD30,[1]; [3],153
same,APD30 percentage change compared to vehicle control,[1]; [3],-14%
same,APD50,[1]; [3],205
same,APD50 percentage change compared to vehicle control,[1]; [3],-13%
same,APD90,[1]; [3],281
same,APD90 percentage change compared to vehicle control,[1]; [3],-10%
same,Alternans,[1]; [3],0.75
same,Alternans percentage change compared to vehicle control,[1]; [3],14%
same,Beat Escape,[1]; [3],0
same,Beat Escape percentage change compared to vehicle control,[1]; [3],0%
same,EADs,[1]; [3],0
same,EADs percentage change compared to vehicle control,[1]; [3],0%
same,ERP,[1]; [3],0.45
same,ERP percentage change compared to vehicle control,[1]; [3],3%
same,Max Dispersion,[1]; [3],3.28
same,Max Dispersion percentage change compared to vehicle control,[1]; [3],11%
same,RMP,[1]; [3],-94
same,RMP percentage change compared to vehicle control,[1]; [3],-1%
same,Refractoriness Escape,[1]; [3],0
same,Refractoriness Escape percentage change compared to vehicle control,[1]; [3],0%
same,STV,[1]; [3],0.54
same,STV percentage change compared to vehicle control,[1]; [3],22%
same,Triangulation,[1]; [3],127
same,Triangulation percentage change compared to vehicle control,[1]; [3],-3%
same,AMAX,[1]; [4],111
same,AMAX percentage change compared to vehicle control,[1]; [4],-2%
same,APD30,[1]; [4],161
same,APD30 percentage change compared to vehicle control,[1]; [4],-11%
same,APD50,[1]; [4],213
same,APD50 percentage change compared to vehicle control,[1]; [4],-10%
same,APD90,[1]; [4],286
same,APD90 percentage change compared to vehicle control,[1]; [4],-9%
same,Alternans,[1]; [4],0.76
same,Alternans percentage change compared to vehicle control,[1]; [4],16%
same,Beat Escape,[1]; [4],0
same,Beat Escape percentage change compared to vehicle control,[1]; [4],0%
same,EADs,[1]; [4],0
same,EADs percentage change compared to vehicle control,[1]; [4],0%
same,ERP,[1]; [4],0.44
same,ERP percentage change compared to vehicle control,[1]; [4],1%
same,Max Dispersion,[1]; [4],3.20
same,Max Dispersion percentage change compared to vehicle control,[1]; [4],8%
same,RMP,[1]; [4],-96
same,RMP percentage change compared to vehicle control,[1]; [4],0%
same,Refractoriness Escape,[1]; [4],0
same,Refractoriness Escape percentage change compared to vehicle control,[1]; [4],0%
same,STV,[1]; [4],0.57
same,STV percentage change compared to vehicle control,[1]; [4],42%
same,Triangulation,[1]; [4],124
same,Triangulation percentage change compared to vehicle control,[1]; [4],-5%
same,AMAX,[1]; [5],111
same,AMAX percentage change compared to vehicle control,[1]; [5],-1%
same,APD30,[1]; [5],148
same,APD30 percentage change compared to vehicle control,[1]; [5],-17%
same,APD50,[1]; [5],206
same,APD50 percentage change compared to vehicle control,[1]; [5],-13%
same,APD90,[1]; [5],285
same,APD90 percentage change compared to vehicle control,[1]; [5],-8%
same,Alternans,[1]; [5],0.37
same,Alternans percentage change compared to vehicle control,[1]; [5],-44%
same,Beat Escape,[1]; [5],0
same,Beat Escape percentage change compared to vehicle control,[1]; [5],0%
same,EADs,[1]; [5],0
same,EADs percentage change compared to vehicle control,[1]; [5],0%
same,ERP,[1]; [5],0.48
same,ERP percentage change compared to vehicle control,[1]; [5],11%
same,Max Dispersion,[1]; [5],2.73
same,Max Dispersion percentage change compared to vehicle control,[1]; [5],-8%
same,RMP,[1]; [5],-99
same,RMP percentage change compared to vehicle control,[1]; [5],4%
same,Refractoriness Escape,[1]; [5],0
same,Refractoriness Escape percentage change compared to vehicle control,[1]; [5],0%
same,STV,[1]; [5],0.27
same,STV percentage change compared to vehicle control,[1]; [5],-31%
same,Triangulation,[1]; [5],137
same,Triangulation percentage change compared to vehicle control,[1]; [5],4%
same,AMAX,[1]; [6],116
same,AMAX percentage change compared to vehicle control,[1]; [6],3%
same,APD30,[1]; [6],158
same,APD30 percentage change compared to vehicle control,[1]; [6],-12%
same,APD50,[1]; [6],224
same,APD50 percentage change compared to vehicle control,[1]; [6],-6%
same,APD90,[1]; [6],312
same,APD90 percentage change compared to vehicle control,[1]; [6],0%
same,Alternans,[1]; [6],0.54
same,Alternans percentage change compared to vehicle control,[1]; [6],-17%
same,Beat Escape,[1]; [6],0
same,Beat Escape percentage change compared to vehicle control,[1]; [6],0%
same,EADs,[1]; [6],0
same,EADs percentage change compared to vehicle control,[1]; [6],0%
same,ERP,[1]; [6],0.49
same,ERP percentage change compared to vehicle control,[1]; [6],14%
same,Max Dispersion,[1]; [6],2.75
same,Max Dispersion percentage change compared to vehicle control,[1]; [6],-7%
same,RMP,[1]; [6],-102
same,RMP percentage change compared to vehicle control,[1]; [6],7%
same,Refractoriness Escape,[1]; [6],0
same,Refractoriness Escape percentage change compared to vehicle control,[1]; [6],0%
same,STV,[1]; [6],0.37
same,STV percentage change compared to vehicle control,[1]; [6],3%
same,Triangulation,[1]; [6],154
same,Triangulation percentage change compared to vehicle control,[1]; [6],17%
same,AMAX,[1]; [7],110
same,AMAX percentage change compared to vehicle control,[1]; [7],-2%
same,APD30,[1]; [7],114
same,APD30 percentage change compared to vehicle control,[1]; [7],-10%
same,APD50,[1]; [7],157
same,APD50 percentage change compared to vehicle control,[1]; [7],-8%
same,APD90,[1]; [7],228
same,APD90 percentage change compared to vehicle control,[1]; [7],-6%
same,Alternans,[1]; [7],0.98
same,Alternans percentage change compared to vehicle control,[1]; [7],18%
same,Beat Escape,[1]; [7],0
same,Beat Escape percentage change compared to vehicle control,[1]; [7],0%
same,EADs,[1]; [7],0
same,EADs percentage change compared to vehicle control,[1]; [7],0%
same,ERP,[1]; [7],0.47
same,ERP percentage change compared to vehicle control,[1]; [7],1%
same,Max Dispersion,[1]; [7],4.08
same,Max Dispersion percentage change compared to vehicle control,[1]; [7],3%
same,RMP,[1]; [7],-94
same,RMP percentage change compared to vehicle control,[1]; [7],0%
same,Refractoriness Escape,[1]; [7],0
same,Refractoriness Escape percentage change compared to vehicle control,[1]; [7],0%
same,STV,[1]; [7],0.76
same,Triangulation,[1]; [7],114
same,Triangulation percentage change compared to vehicle control,[1]; [7],-2%
same,AMAX,[1]; [8],109
same,AMAX percentage change compared to vehicle control,[1]; [8],-3%
same,APD30,[1]; [8],115
same,APD30 percentage change compared to vehicle control,[1]; [8],-10%
same,APD50,[1]; [8],156
same,APD50 percentage change compared to vehicle control,[1]; [8],-10%
same,APD90,[1]; [8],225
same,APD90 percentage change compared to vehicle control,[1]; [8],-8%
same,Alternans,[1]; [8],0.99
same,Alternans percentage change compared to vehicle control,[1]; [8],20%
same,Beat Escape,[1]; [8],0
same,Beat Escape percentage change compared to vehicle control,[1]; [8],0%
same,EADs,[1]; [8],0
same,EADs percentage change compared to vehicle control,[1]; [8],0%
same,ERP,[1]; [8],0.46
same,ERP percentage change compared to vehicle control,[1]; [8],1%
same,Max Dispersion,[1]; [8],4.38
same,Max Dispersion percentage change compared to vehicle control,[1]; [8],10%
same,RMP,[1]; [8],-94
same,RMP percentage change compared to vehicle control,[1]; [8],0%
same,Refractoriness Escape,[1]; [8],0
same,Refractoriness Escape percentage change compared to vehicle control,[1]; [8],0%
same,STV,[1]; [8],0.66
same,Triangulation,[1]; [8],110
same,Triangulation percentage change compared to vehicle control,[1]; [8],-6%
same,AMAX,[1]; [9],114
same,AMAX percentage change compared to vehicle control,[1]; [9],1%
same,APD30,[1]; [9],110
same,APD30 percentage change compared to vehicle control,[1]; [9],-13%
same,APD50,[1]; [9],157
same,APD50 percentage change compared to vehicle control,[1]; [9],-9%
same,APD90,[1]; [9],231
same,APD90 percentage change compared to vehicle control,[1]; [9],-5%
same,Alternans,[1]; [9],0.63
same,Alternans percentage change compared to vehicle control,[1]; [9],-24%
same,Beat Escape,[1]; [9],0
same,Beat Escape percentage change compared to vehicle control,[1]; [9],0%
same,EADs,[1]; [9],0
same,EADs percentage change compared to vehicle control,[1]; [9],0%
same,ERP,[1]; [9],0.50
same,ERP percentage change compared to vehicle control,[1]; [9],10%
same,Max Dispersion,[1]; [9],2.55
same,Max Dispersion percentage change compared to vehicle control,[1]; [9],-36%
same,RMP,[1]; [9],-100
same,RMP percentage change compared to vehicle control,[1]; [9],6%
same,Refractoriness Escape,[1]; [9],0
same,Refractoriness Escape percentage change compared to vehicle control,[1]; [9],0%
same,STV,[1]; [9],0.45
same,Triangulation,[1]; [9],122
same,Triangulation percentage change compared to vehicle control,[1]; [9],4%
same,AMAX,[1]; [10],114
same,AMAX percentage change compared to vehicle control,[1]; [10],2%
same,APD30,[1]; [10],114
same,APD30 percentage change compared to vehicle control,[1]; [10],-10%
same,APD50,[1]; [10],168
same,APD50 percentage change compared to vehicle control,[1]; [10],-3%
same,APD90,[1]; [10],254
same,APD90 percentage change compared to vehicle control,[1]; [10],4%
same,Alternans,[1]; [10],0.75
same,Alternans percentage change compared to vehicle control,[1]; [10],-9%
same,Beat Escape,[1]; [10],0
same,Beat Escape percentage change compared to vehicle control,[1]; [10],0%
same,EADs,[1]; [10],0
same,EADs percentage change compared to vehicle control,[1]; [10],0%
same,ERP,[1]; [10],0.52
same,ERP percentage change compared to vehicle control,[1]; [10],13%
same,Max Dispersion,[1]; [10],3.75
same,Max Dispersion percentage change compared to vehicle control,[1]; [10],-6%
same,RMP,[1]; [10],-101
same,RMP percentage change compared to vehicle control,[1]; [10],7%
same,Refractoriness Escape,[1]; [10],0
same,Refractoriness Escape percentage change compared to vehicle control,[1]; [10],0%
same,STV,[1]; [10],0.56
same,Triangulation,[1]; [10],140
same,Triangulation percentage change compared to vehicle control,[1]; [10],20%
same,Free ETPC,[2],0.003 µM
